Test results reported in ChEMBL document CHEMBL1135364, “Synthesis and structure-activity relationships of oxime neurokinin antagonists: discovery of potent arylamides” (Bioorg Med Chem Lett, 2002).

How the values were obtained:
Substance-K receptor [1] = target: T1, Substance-K receptor (Homo sapiens, UniProt P21452); assay: Binding affinity test against Neurokinin 2 (NK2) receptor
T1 sequence (P21452 whole entry): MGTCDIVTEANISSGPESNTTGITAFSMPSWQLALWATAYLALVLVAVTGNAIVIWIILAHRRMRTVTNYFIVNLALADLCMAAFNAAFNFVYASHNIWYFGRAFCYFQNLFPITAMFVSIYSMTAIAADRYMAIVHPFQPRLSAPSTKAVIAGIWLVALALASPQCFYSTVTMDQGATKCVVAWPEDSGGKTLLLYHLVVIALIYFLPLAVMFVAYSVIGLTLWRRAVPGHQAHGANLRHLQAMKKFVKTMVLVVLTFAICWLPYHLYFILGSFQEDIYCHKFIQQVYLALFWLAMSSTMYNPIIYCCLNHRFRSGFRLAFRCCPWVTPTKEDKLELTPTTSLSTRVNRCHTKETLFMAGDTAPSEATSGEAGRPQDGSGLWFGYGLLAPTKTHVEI

Substance-P receptor [2] = target: T2, Substance-P receptor (Homo sapiens, UniProt P25103); assay: Tested for binding affinity against neurokinin 1 (NK1) receptor
Substance-P receptor [3] = target: T2, Substance-P receptor; assay: Affinity for human Neurokinin 1 (NK1) receptor expressed in CHO cells at 1 uM; assay type: cell-based
Substance-K receptor [4] = target: T1, Substance-K receptor; assay: Tested for binding affinity of compound against Tachykinin receptor 2
[5] = target: T3, Substance-K receptor (Homo sapiens) (UniProt P21452); assay: Tested for binding affinity of compound against Neurokinin 2 (NK2) receptor at 1 uM
T3 sequence (whole entry): T1 sequence (P21452 whole entry)

T2 sequence (P25103 whole entry): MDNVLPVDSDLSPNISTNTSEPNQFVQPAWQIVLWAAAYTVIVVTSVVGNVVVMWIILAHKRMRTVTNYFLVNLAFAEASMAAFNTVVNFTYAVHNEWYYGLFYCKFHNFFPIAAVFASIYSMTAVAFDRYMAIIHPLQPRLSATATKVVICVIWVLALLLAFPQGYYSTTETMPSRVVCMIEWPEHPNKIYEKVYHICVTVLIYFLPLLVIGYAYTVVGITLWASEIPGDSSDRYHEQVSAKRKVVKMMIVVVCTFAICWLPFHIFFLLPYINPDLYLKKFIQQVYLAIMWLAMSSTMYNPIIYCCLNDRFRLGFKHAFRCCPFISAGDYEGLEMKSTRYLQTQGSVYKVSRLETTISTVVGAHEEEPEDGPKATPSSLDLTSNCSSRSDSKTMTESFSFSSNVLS

| Ki (Substance-K receptor [1]) | Ki (Substance-P receptor [2]) | SMILES | other results |
| --- | --- | --- | --- |
| 15 nM | 10 nM | CO/N=C(\COCc1cc(Br)cc(Br)c1)C(CCN1CCC(O)(c2ccccc2)CC1)c1ccc(Cl)c(Cl)c1 (stereo unspecified) |  |
| 28 nM |  | CO/N=C(\COCc1cc(OC)c(OC)c(OC)c1)C(CCN1CCC(O)(c2ccccc2)CC1)c1ccc(Cl)c(Cl)c1 (stereo unspecified) |  |
| 4 nM |  | CO/N=C(\COCc1ccc(C(C)(C)C)cc1)C(CCN1CCC(O)(c2ccccc2)CC1)c1ccc(Cl)c(Cl)c1 (stereo unspecified) | inhibition (Substance-P receptor [3]): 6% |
|  |  | CO/N=C(/COCc1cc(C(F)(F)F)cc(C(F)(F)F)c1)C(CCN1CCC(O)(c2ccccc2)CC1)c1ccc(Cl)c(Cl)c1 (stereo unspecified) | Ki (Substance-K receptor [4]): 21 nM |
| 2 nM | 1 nM | CO/N=C(\CN(C)C(=O)c1cc(C)cc(C)c1)C(CCN1CCC(O)(c2ccccc2)CC1)c1ccc(Cl)c(Cl)c1 (stereo unspecified) |  |
|  | 23 nM | CO/N=C(\CCc1cc(C(F)(F)F)cc(C(F)(F)F)c1)C(CCN1CCC(O)(c2ccccc2)CC1)c1ccc(Cl)c(Cl)c1 (stereo unspecified) | inhibition [5]: 51% |
| 4 nM | 7 nM | CO/N=C(\CN(C)C(=O)c1cncc(Br)c1)C(CCN1CCC(O)(c2ccccc2)CC1)c1ccc(Cl)c(Cl)c1 (stereo unspecified) |  |
| 2 nM |  | CO/N=C(\CNC(=O)c1cc(C(F)(F)F)cc(C(F)(F)F)c1)C(CCN1CCC(O)(c2ccccc2)CC1)c1ccc(Cl)c(Cl)c1 (stereo unspecified) |  |
| 157 nM | 75 nM | CO/N=C(\C(C)OCc1cc(C(F)(F)F)cc(C(F)(F)F)c1)C(CCN1CCC(O)(c2ccccc2)CC1)c1ccc(Cl)c(Cl)c1 (stereo unspecified) |  |
| 8 nM |  | CO/N=C(\COCc1cc(C)cc(C)c1)C(CCN1CCC(O)(c2ccccc2)CC1)c1ccc(Cl)c(Cl)c1 (stereo unspecified) |  |
| 42 nM |  | CO/N=C(\COCc1cc(F)cc(F)c1)C(CCN1CCC(O)(c2ccccc2)CC1)c1ccc(Cl)c(Cl)c1 (stereo unspecified) |  |
| 35 nM | 32 nM | CO/N=C(\COC(=O)Nc1cc(C(F)(F)F)cc(C(F)(F)F)c1)C(CCN1CCC(O)(c2ccccc2)CC1)c1ccc(Cl)c(Cl)c1 (stereo unspecified) |  |
|  | 81 nM | CO/N=C(\COc1cc(C(F)(F)F)cc(C(F)(F)F)c1)C(CCN1CCC(O)(c2ccccc2)CC1)c1ccc(Cl)c(Cl)c1 (stereo unspecified) | inhibition [5]: 31% |
| 7 nM |  | CO/N=C(\CN(C)C(=O)c1ccc(N(C)C)c2ccccc12)C(CCN1CCC(O)(c2ccccc2)CC1)c1ccc(Cl)c(Cl)c1 (stereo unspecified) |  |
| 130 nM |  | CO/N=C(\COCc1cc(C(C)(C)C)cc(C(C)(C)C)c1)C(CCN1CCC(O)(c2ccccc2)CC1)c1ccc(Cl)c(Cl)c1 (stereo unspecified) | inhibition (Substance-P receptor [3]): 19% |
| 4 nM |  | CO/N=C(\CN(C)C(=O)c1ccccc1OC)C(CCN1CCC(O)(c2ccccc2)CC1)c1ccc(Cl)c(Cl)c1 (stereo unspecified) |  |
| 136 nM |  | CO/N=C(\COCc1ccccc1C)C(CCN1CCC(O)(c2ccccc2)CC1)c1ccc(Cl)c(Cl)c1 (stereo unspecified) | inhibition (Substance-P receptor [3]): 34% |
| 38 nM |  | CO/N=C(\COCc1ccc(-c2ccccc2)cc1)C(CCN1CCC(O)(c2ccccc2)CC1)c1ccc(Cl)c(Cl)c1 (stereo unspecified) | inhibition (Substance-P receptor [3]): 2% |
| 21 nM |  | CO/N=C(\COCc1ccc2sc(C)nc2c1)C(CCN1CCC(O)(c2ccccc2)CC1)c1ccc(Cl)c(Cl)c1 (stereo unspecified) | inhibition (Substance-P receptor [3]): 48% |
| 286 nM | 435 nM | CO/N=C(\CN(C)S(=O)(=O)c1cc(C(F)(F)F)cc(C(F)(F)F)c1)C(CCN1CCC(O)(c2ccccc2)CC1)c1ccc(Cl)c(Cl)c1 (stereo unspecified) |  |
| 20 nM |  | CO/N=C(\COCc1ccc2ccc(C(F)(F)F)nc2c1)C(CCN1CCC(O)(c2ccccc2)CC1)c1ccc(Cl)c(Cl)c1 (stereo unspecified) | inhibition (Substance-P receptor [3]): 23% |
| 2 nM | 5 nM | CO/N=C(\CN(C)C(=O)c1cc(OC)cc(OC)c1)C(CCN1CCC(O)(c2ccccc2)CC1)c1ccc(Cl)c(Cl)c1 (stereo unspecified) |  |
| 12 nM |  | CO/N=C(\COCc1ccc2ccccc2c1)C(CCN1CCC(O)(c2ccccc2)CC1)c1ccc(Cl)c(Cl)c1 (stereo unspecified) | inhibition (Substance-P receptor [3]): 37% |
| 8 nM | 5 nM | CO/N=C(\CN(C)C(=O)c1cc(OC)c(Br)c(OC)c1)C(CCN1CCC(O)(c2ccccc2)CC1)c1ccc(Cl)c(Cl)c1 (stereo unspecified) |  |
| 18 nM |  | CO/N=C(\COCc1cc(OC)cc(OC)c1)C(CCN1CCC(O)(c2ccccc2)CC1)c1ccc(Cl)c(Cl)c1 (stereo unspecified) |  |
| 167 nM | 6 nM | CO/N=C(\C(=O)N(C)Cc1cc(C(F)(F)F)cc(C(F)(F)F)c1)C(CCN1CCC(O)(c2ccccc2)CC1)c1ccc(Cl)c(Cl)c1 (stereo unspecified) |  |

| Ki (Substance-K receptor [1]) | Ki (Substance-P receptor [2]) | SMILES | other results |
| --- | --- | --- | --- |
| 17 nM |  | CO/N=C(\COCc1ccc2nonc2c1)C(CCN1CCC(O)(c2ccccc2)CC1)c1ccc(Cl)c(Cl)c1 (stereo unspecified) | inhibition (Substance-P receptor [3]): 29% |
| 118 nM | 39 nM | CO/N=C(\COCCc1cc(C(F)(F)F)cc(C(F)(F)F)c1)C(CCN1CCC(O)(c2ccccc2)CC1)c1ccc(Cl)c(Cl)c1 (stereo unspecified) |  |
| 1 nM | 2 nM | CO/N=C(\CN(C)C(=O)c1cc(C)nc(N(C)C)c1)C(CCN1CCC(O)(c2ccccc2)CC1)c1ccc(Cl)c(Cl)c1 (stereo unspecified) |  |
| 40 nM |  | CO/N=C(\COCc1ccccc1)C(CCN1CCC(O)(c2ccccc2)CC1)c1ccc(Cl)c(Cl)c1 (stereo unspecified) | inhibition (Substance-P receptor [3]): 33% |
| 54 nM |  | CO/N=C(\CNC(=O)c1ccccc1OC)C(CCN1CCC(O)(c2ccccc2)CC1)c1ccc(Cl)c(Cl)c1 (stereo unspecified) |  |
| 2 nM |  | CO/N=C(\CN(C)C(=O)c1ccc(C)s1)C(CCN1CCC(O)(c2ccccc2)CC1)c1ccc(Cl)c(Cl)c1 (stereo unspecified) |  |
| 6 nM |  | CO/N=C(\CN(C)C(=O)c1cc(C)nc(C)c1)C(CCN1CCC(O)(c2ccccc2)CC1)c1ccc(Cl)c(Cl)c1 (stereo unspecified) |  |
| 6 nM |  | CO/N=C(\COCc1cc(Cl)cc(Cl)c1)C(CCN1CCC(O)(c2ccccc2)CC1)c1ccc(Cl)c(Cl)c1 (stereo unspecified) |  |
| 22 nM | 42 nM | CO/N=C(\CN(C)Cc1cc(C(F)(F)F)cc(C(F)(F)F)c1)C(CCN1CCC(O)(c2ccccc2)CC1)c1ccc(Cl)c(Cl)c1 (stereo unspecified) |  |
| 20 nM |  | CO/N=C(\COC/C=C/c1cc(C(F)(F)F)cc(C(F)(F)F)c1)C(CCN1CCC(O)(c2ccccc2)CC1)c1ccc(Cl)c(Cl)c1 (stereo unspecified) | inhibition (Substance-P receptor [3]): 36% |
| 100 nM |  | CO/N=C(\CO/C=C/c1cc(C(F)(F)F)cc(C(F)(F)F)c1)C(CCN1CCC(O)(c2ccccc2)CC1)c1ccc(Cl)c(Cl)c1 (stereo unspecified) | inhibition (Substance-P receptor [3]): 20% |
| 7 nM |  | CO/N=C(\COCC12CC3CC(CC(C3)C1)C2)C(CCN1CCC(O)(c2ccccc2)CC1)c1ccc(Cl)c(Cl)c1 (stereo unspecified) | inhibition (Substance-P receptor [3]): 0% |
| 3 nM | 2 nM | CO/N=C(\CN(C)C(=O)c1cc(C)nc(N2CCCC2)c1)C(CCN1CCC(O)(c2ccccc2)CC1)c1ccc(Cl)c(Cl)c1 (stereo unspecified) |  |
| 21 nM |  | CO/N=C(\COCc1ccc(F)c2ccccc12)C(CCN1CCC(O)(c2ccccc2)CC1)c1ccc(Cl)c(Cl)c1 (stereo unspecified) |  |
| 25 nM | 168 nM | CO/N=C(\COC(=O)c1cc(C(F)(F)F)cc(C(F)(F)F)c1)C(CCN1CCC(O)(c2ccccc2)CC1)c1ccc(Cl)c(Cl)c1 (stereo unspecified) |  |
| 332 nM | 92 nM | CO/N=C(\CCCc1cc(C(F)(F)F)cc(C(F)(F)F)c1)C(CCN1CCC(O)(c2ccccc2)CC1)c1ccc(Cl)c(Cl)c1 (stereo unspecified) |  |
| 10 nM |  | CO/N=C(\COCc1cc(F)cc(C(F)(F)F)c1)C(CCN1CCC(O)(c2ccccc2)CC1)c1ccc(Cl)c(Cl)c1 (stereo unspecified) |  |
| 13 nM |  | CO/N=C(\COCC1CCCCC1)C(CCN1CCC(O)(c2ccccc2)CC1)c1ccc(Cl)c(Cl)c1 (stereo unspecified) | inhibition (Substance-P receptor [3]): 21% |
| 6 nM | 2 nM | CO/N=C(\CN(C)C(=O)c1cc(C)nc(-c2cccs2)c1)C(CCN1CCC(O)(c2ccccc2)CC1)c1ccc(Cl)c(Cl)c1 (stereo unspecified) |  |
| 130 nM | 50 nM | CO/N=C(\CNCc1cc(C(F)(F)F)cc(C(F)(F)F)c1)C(CCN1CCC(O)(c2ccccc2)CC1)c1ccc(Cl)c(Cl)c1 (stereo unspecified) |  |
| 4 nM | 2 nM | CO/N=C(\CN(C)C(=O)c1cc(Cl)cc(Cl)c1)C(CCN1CCC(O)(c2ccccc2)CC1)c1ccc(Cl)c(Cl)c1 (stereo unspecified) |  |
| 8 nM | 5 nM | CO/N=C(\CN(C)C(=O)Nc1cc(C(F)(F)F)cc(C(F)(F)F)c1)C(CCN1CCC(O)(c2ccccc2)CC1)c1ccc(Cl)c(Cl)c1 (stereo unspecified) |  |
| 9 nM |  | CO/N=C(\COCc1ccc(C)cc1)C(CCN1CCC(O)(c2ccccc2)CC1)c1ccc(Cl)c(Cl)c1 (stereo unspecified) | inhibition (Substance-P receptor [3]): 48% |
| 3 nM |  | CO/N=C(\CN(C)C(=O)c1cc(OC)c(OC)c(OC)c1)C(CCN1CCC(O)(c2ccccc2)CC1)c1ccc(Cl)c(Cl)c1 (stereo unspecified) |  |
| 43 nM |  | CO/N=C(\COCc1ccccn1)C(CCN1CCC(O)(c2ccccc2)CC1)c1ccc(Cl)c(Cl)c1 (stereo unspecified) |  |

| SMILES | Ki (Substance-K receptor [1]) | Ki (Substance-P receptor [2]) | other results |
| --- | --- | --- | --- |
| CO/N=C(\CN(C)C(=O)Oc1cc(C(F)(F)F)cc(C(F)(F)F)c1)C(CCN1CCC(O)(c2ccccc2)CC1)c1ccc(Cl)c(Cl)c1 (stereo unspecified) | 11 nM | 6 nM |  |
| CO/N=C(\CN(C)C(=O)c1cc(C(F)(F)F)cc(C(F)(F)F)c1)C(CCN1CCC(O)(c2ccccc2)CC1)c1ccc(Cl)c(Cl)c1 (stereo unspecified) | 9 nM | 4 nM |  |
| CO/N=C(\COCc1noc(C(C)(C)C)n1)C(CCN1CCC(O)(c2ccccc2)CC1)c1ccc(Cl)c(Cl)c1 (stereo unspecified) | 1 nM |  |  |
